From article PMC4404333, “Identification of Selective Inhibitors of the Plasmodium falciparum Hexose Transporter PfHT by Screening Focused Libraries of Anti-Malarial Compounds” (PLoS ONE, 2015)

Tests used:
[1] = tested on: BJ cell line (human foreskin fibroblasts); experiment: Mammalian cell drug susceptibility assay (Cell Titer Glo, 72 h); type: cell-based
Protocol: The BJ cell line (human foreskin fibroblasts), which express GLUT1 [26], was purchased from the ATTC and cultured according to recommendations. 1000 exponentially growing cells were plated per well (25 μL) in white polystyrene flat bottom sterile 384-well tissue culture treated plates (Corning), and incubated overnight at 37°C in a humidified 5% CO2 incubator. DMSO inhibitor stock solutions were pin-transferred (V&P Scientific) the following day. Plates were placed back in the incubator for 72 h incubation and equilibrated at room temperature for 20 min before addition of 25 μL Cell Titer Glo (Promega) to each well. Plates were shaken on an orbital shaker for 2 min at 500 rpm. Luminescence was read after 15 min on an Envision plate reader (Perkin Elmer). EC50 values were calculated with a custom program (RISE, Robust Investigation of Screening Experiments) using a four-parameter logistic equation.

[2] = tested on: hepatic stage and ookinetes of P. berghei; set-up: method as in PMID 21169382, PMID 21402842; details: cited from earlier work
[3] = target: PfHT (Plasmodium falciparum, UniProt Q7KWJ5); details: read-out: Ki for glucose uptake by PfHT; cited from earlier work
[4] = tested on: P. berghei parasites; set-up: method as in PMID 12792024; details: mice infected with P. berghei, 25 mg/kg (i.p.) twice daily; cited from earlier work
[5] = target: T1, human GLUT1 (Homo sapiens, UniProt P11166); details: 1 mM concentration; cited from earlier work
T1 sequence (P11166 1-492): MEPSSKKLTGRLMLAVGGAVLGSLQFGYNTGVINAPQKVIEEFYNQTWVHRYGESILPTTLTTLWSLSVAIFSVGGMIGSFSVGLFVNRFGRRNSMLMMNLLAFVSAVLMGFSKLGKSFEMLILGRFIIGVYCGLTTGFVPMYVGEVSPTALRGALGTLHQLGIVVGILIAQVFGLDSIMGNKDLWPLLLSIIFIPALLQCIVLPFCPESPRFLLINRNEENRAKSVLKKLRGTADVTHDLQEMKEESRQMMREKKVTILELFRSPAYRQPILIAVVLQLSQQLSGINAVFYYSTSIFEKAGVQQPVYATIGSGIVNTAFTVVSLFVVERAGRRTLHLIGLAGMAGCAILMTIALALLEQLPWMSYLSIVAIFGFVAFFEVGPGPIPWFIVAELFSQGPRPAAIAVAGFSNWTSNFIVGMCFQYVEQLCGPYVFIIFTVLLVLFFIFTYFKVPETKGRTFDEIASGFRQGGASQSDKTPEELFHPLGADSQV

[6] = tested on: intraerythrocytic P. falciparum parasites; set-up: method as in PMID 12792024; details: read-out: IC50 growth of intraerythrocytic P. falciparum parasites in vitro; cited from earlier work

Chain of PfHT (Q7KWJ5 whole entry): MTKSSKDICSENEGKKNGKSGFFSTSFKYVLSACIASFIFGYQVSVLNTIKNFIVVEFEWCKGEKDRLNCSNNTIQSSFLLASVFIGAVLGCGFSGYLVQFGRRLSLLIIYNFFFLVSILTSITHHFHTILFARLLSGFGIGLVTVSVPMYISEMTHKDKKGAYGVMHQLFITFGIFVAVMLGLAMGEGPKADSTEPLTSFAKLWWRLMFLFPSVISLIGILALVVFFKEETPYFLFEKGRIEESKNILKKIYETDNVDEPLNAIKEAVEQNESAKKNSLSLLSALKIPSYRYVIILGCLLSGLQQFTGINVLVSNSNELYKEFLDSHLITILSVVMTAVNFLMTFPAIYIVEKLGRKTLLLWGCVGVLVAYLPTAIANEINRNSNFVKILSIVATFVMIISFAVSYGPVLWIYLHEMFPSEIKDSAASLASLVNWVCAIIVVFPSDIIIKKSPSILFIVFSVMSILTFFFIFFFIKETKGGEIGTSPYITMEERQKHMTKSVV

CC(C)=CCC[C@]1(C)C=Cc2c(O)c3c(c(CC=C(C)C)c2O1)O[C@]12C(=C[C@@H]4C[C@H]1C(C)(C)O[C@@]2(C/C=C(/C)C(=O)O)C4=O)C3=O [Gambogic acid, gambogic acid, reference compound]
EC50 [1]: 2.5 µM

C=CCCCCCCCCCO[C@@H]([C@H](O)[C@H](O)CO)[C@@H](O)C=O [compound 3361, 3-O-((undec-10-en)-1-yl)-D-glucose]
inhibition of viability of liver and mosquito stages [2]: strong inhibition of viability | Ki [3]: 53 µM | reduction in parasitemia [4]: 40% | inhibition of GLUT1 [5]: no significant inhibition | IC50 [6]: 15.7 µM
